Experimental data as given in patent US12679855B2, “Inhibitors of the enzyme enolase for precision oncology” (Board of Regents, The University of Texas System, priority 2019, dated 2026).
“And” between values parts separate entries of the source, which are not always exact repeats. Equal entries are not always repeated. Where two headings read alike, the source gives them in different places.

Columns and labels:
[1] = system: D423 (ENO1-deleted) glioma cells; assay: Cell proliferation assay (crystal violet) in ENO1-deleted glioma cells; type: cell-based; details: 4 days
[2] = system: glioma cell lines with different ENO1-deletion status; assay: Enolase inhibitor sensitivity across glioma cell lines; type: cell-based
Procedure: (§1) Enolase inhibitor sensitivity experiments were performed, using DMEM containing 10% FBS cell culture media. IC50 (expressed in nM) were calculated based on terminal cell density measured by crystal violet after 7 days of growth. […] Left table: POMHEX. Middle table: HEX. Right table: Ratio of sensitivity to POMHEX versus HEX for each cell line.
(§2) (FIG. 19A) ENO1-deleted (D423, red), ENO1-isogenically rescued (D423 ENO1, blue), and ENO1-WT (LN319, grey) cells were treated POMHEX in RPMI media under the same experimental conditions used for NCI-60 screening. […] IC50 (expressed in nM) were calculated based on terminal cell density measured by crystal violet.

[3] = Human plasma stability assay (31P NMR); type: in vitro ADME
Procedure: VCY17 (left) and POMHEX (right) were prepared at 1.5 mM and added to human plasma in an NMR tube with 10% D2O for signal lock. […] As expected, emergence of the second peak after 1 h is due to hydrolysis of the acetyl-protected hydroxamate; the nitroimidazole moiety remains attached (mono-ester phosphonates always show ^31P-chemical shifts <20 ppm); intact phosphoramidate mixed ester was verified by ^31P-^1H HSQC showing resonance with protons at ~5 ppm (—CH2—O—P) and 4 ppm (—CH2—NH—P). Note that VCY17 and de-acetylated VCY17 can come out as doublets: this is because two chiral centers (Phosphorus and C1) yield cis/trans diasteromers.
VCY13 (FIG. 20A) and VCY31 (FIG. 20B) are thioesterase-labile phosphonoamidates. ENO1-deleted (D423, red), ENO1-isogenically rescued (D423 ENO1, blue), and ENO1-WT (LN319, grey) cells were treated with either VCY13 or VCY31 for 5 days. […] (FIG. 20B) VCY31 is a structurally similar pro-drug that uses 2-picolylamine, rather than benzylamine, as a second pro-drug leave group. […] 4 mM VCY31 was dissolved in 80% human plasma, 20% D2O and monitored by ^31P NMR (121 MHz) for 15 hours. Intact VCY31 has a ^31P NMR shift of 33 ppm. Hydrolysis of the thioester begins to occur after 2 hours, as indicated by the emergence of a peak at ~16 ppm.
Human plasma stability assay. POMHEX and VCY17 (1.5 mM) were added to human plasma (Sigma #P9523) in an NMR tube with 10% D2O for signal lock. ^31P NMR measurements (31P CPD, 1000 transients) were conducted every 30 minutes on the first day and every 24 hours, for 4 days afterwards.

[4] = Plasma levels after IV injection of POMHEX in monkeys; type: in vivo, monkey
Procedure: (§3) FIGS. 16A-16C show the ex-vivo half-life of POMHEX in biological fluids limits its clinical utility. […] Lower levels of carboxylesterase in human blood results in a longer half-life of POMHEX. (FIG. 16B) Dramatically higher drug exposure in non-human primates as compared to mice following IV injections of POMHEX. Mice (n=3; pooled) and monkeys (n=3; pooled) were injected IV with POMHEX at 10 mg/kg and 2.5 mg/kg, respectively. […] POMHEX was undetectable (<50 nM) even at the earliest time point, in both monkey and mouse experiments; at 98 nM, POMHEX was detectable 1-minute post-injection, but at no time thereafter. […] HEX and HemiPOMHEX were not measured at concentrations higher than 10 mg/kg due to the hazards associated with the derivatization agent, trimethylsilyl-diazomethane in hexane (TMS-DAM). (FIG. 16C) Schematic of POMHEX in circulation when administered IP or IV in mice. Due to high levels of plasma carboxylesterase, a gradient decrease in POMHEX away from the site of injection is accompanied by a concurrent increase in HemiPOMHEX.

[5] = Plasma and organ levels after injection of POMHEX in mice; type: in vivo, mouse
Procedure: (§4) FIGS. 3A-3D show the ex-vivo half-life of POMHEX in biological fluids may limit its clinical utility. (FIG. 3A) Ex-vivo half-life of POMHEX in biological fluids. POMHEX has a half-life of ~30 seconds in mouse plasma. The degradation may be prevented by heat inactivation or de-proteinatization with acetonitrile. […] (FIG. 3B) Plasma concentration of HEX and HemiPOMHEX following a single intravenous injection of POMHEX, as a function of time. Mice were injected IV with 10 mg/kg POMHEX and sacrificed at the indicated time points. Each data point represents a single animal. Note, POMHEX itself was below the detection limit (100 nM) even at the earliest time point. It is believed that this may not be reflective of the physiological state as separation of plasma from hematocrit is required for the measurements, which adds approximately 6 minutes of processing time during which POMHEX may be degraded to HemiPOMHEX. (FIG. 3C) The results of the same experiment but performed with an intraperitoneal injection of POMHEX, at a dose of 40 mg/kg. (FIG. 3D) Quantification of POMHEX and its metabolites in mouse organs 24 hrs. after a single intravenous injection of 10 mg/kg POMHEX.
as §3, with “Due to high levels of plasma carboxylesterase, a gradient decrease in POMHEX away from the site of injection is accompanied by a concurrent increase in HemiPOMHEX.” left out

[6] = system: U343 glioma cell line (ENO1-heterozygously deleted); assay: Enolase inhibitor sensitivity (crystal violet), ENO1-heterozygously deleted U343 cells; type: cell-based; details: DMEM 10% FBS, terminal cell density by crystal violet after 7 days
Procedure: as §1, §2
(§5) Cell proliferation assay.

[7] = system: D502 glioma cell line (ENO1-heterozygously deleted); assay: Enolase inhibitor sensitivity (crystal violet), ENO1-heterozygously deleted D502 cells; type: cell-based; details: DMEM 10% FBS, terminal cell density by crystal violet after 7 days
Procedure: as §1, §2, §5

[8] = Ex-vivo stability in human blood; type: in vitro ADME
Procedure: as §4, with “(FIG. 3C) The results of the same experiment but performed with an intraperitoneal injection of POMHEX, at a dose of 40 mg/kg.” left out
FIGS. 16A-16C show the ex-vivo half-life of POMHEX in biological fluids limits its clinical utility. […] HEX and HemiPOMHEX were not measured at concentrations higher than 10 mg/kg due to the hazards associated with the derivatization agent, trimethylsilyl-diazomethane in hexane (TMS-DAM). […]

CC(C)(C)C(=O)OCOP(=O)(OCOC(=O)C(C)(C)C)C1CCCN(O)C1=O (stereo not shown) [POMHEX]
IC50 ([1]; 1% O2, read-out: IC50 for D423 ENO1-homozygously deleted glioma cells under 1% O2 hypoxia): ~90 nM and 84 nM
potency decrease under 1% O2 ([1]; 1% O2 versus 21% O2): ~ 2.5 fold
IC50 ([1]; normoxia (21% O2), read-out: IC50 for D423 ENO1-homozygously deleted glioma cells under normoxia): ~40 nM and 31 nM
specificity towards ENO1-heterozygous deleted cells compared to normal tissue [2]: 10 fold
sensitivity greater in RPMI as compared to DMEM media ([2]; D423, D423 ENO1, LN319 cells, NCI-60 screening conditions): ~ 3 fold
potency of POMHEX greater than HEX, on average ([2]; average across glioma cell lines): ~ 75 fold
time of hydrolysis to HemiPOMHEX in human plasma ([3]; 1.5 mM, human plasma with 10% D2O, 31P NMR): less than 1 h
longevity of intact POMHEX ([3]; FIG. 15): 2 h
plasma concentration of POMHEX 1-minute post-injection ([4]; 1-minute post-injection, species not stated): 98 nM
potentially higher toxicity in monkey ([4]; IV 2.5 mg/kg): did not materialize
plasma concentration of POMHEX, monkeys ([4]; IV 2.5 mg/kg, even at the earliest time point): < 50 nM
level in mouse organs ([5]; 24 hrs. after a single intravenous injection of 10 mg/kg POMHEX): below the quantification limit (BQL)
plasma concentration of POMHEX, mice ([5]; IV 10 mg/kg, even at the earliest time point, 10 mg/kg): < 100 nM and < 50 nM
IC50 [6]: 559 nM
IC50 [7]: 82 nM
stability in human blood relative to mouse plasma [8]: at least 20 times
